Assay in all cases: ≥ marks a high value that may be exact or a test limit, other limits are often not marked, values filed in µg/mL are converted to µM
For assay [1], the system named is Candida albicans NCYC 1467.
Assay [2] deals with Enterococcus faecalis NCTC 12697.
For assay [3], the system named is Escherichia coli NCTC 10418.
The test system of assay [4] is Klebsiella pneumoniae ATCC 43816.
Assay [5] concerns Pseudomonas aeruginosa ATCC 27853.
Assay [6] deals with Staphylococcus aureus NCTC 10788.
In assay [7] the test system is Staphylococcus aureus NCTC 12493.
Assay [8] concerns Acinetobacter baumannii CR17.
In assay [9] the test system is Bacillus subtilis CCT 2471.
For assay [10], the system named is Enterobacter cloacae ATCC 23355.
Assay [11] concerns Escherichia coli ATCC 25922.
Assay [12] relates to Escherichia coli CCT 1371.
Assay [13] deals with Pseudomonas aeruginosa ATCC 15442.
In assay [14] the test system is Staphylococcus aureus ATCC 25923.
Assay [15] relates to Staphylococcus aureus ATCC 6538.
The test system of assay [16] is Staphylococcus epidermidis.
Assay [17] relates to Staphylococcus saprophyticus.

The structures appear in SMILES notation. In brackets after ≈: the same amount, converted by molar mass.

Take `CC[C@H](C)[C@H](NC(=O)[C@H](C)NC(=O)[C@H](CCCCN)NC(=O)[C@@H]1CCCN1C(=O)[C@@H](NC(=O)[C@H](CC(C)C)NC(=O)[C@H](CO)NC(=O)[C@H](CC(C)C)NC(=O)[C@@H](N)Cc1ccccc1)[C@@H](C)CC)C(=O)N[C@@H](CO)C(=O)N[C@@H](C)C(=O)N[C@H](C(=O)N[C@@H](CO)C(=O)N[C@@H](C)C(=O)N[C@@H](CC(C)C)C(=O)N[C@@H](C)C(=O)N[C@@H](CC(N)=O)C(=O)N[C@@H](Cc1cnc[nH]1)C(=O)N[C@@H](Cc1ccccc1)C(N)=O)C(C)C` [FLSLIPKAISAVSALANHF]: the MIC in [1] was 16 µM (≈ 32 µg/mL); in assay [2], at least 32 µM; in assay [3], at least 128 µM; in assay [4] it was at least 256 µM; in assay [5], above 512 µM; in [6], 8 µM (≈ 16 µg/mL). This compound also gave an MIC in [7] of 16 µM (≈ 32 µg/mL).

Take `CC[C@H](C)[C@H](NC(=O)[C@H](CC(N)=O)NC(=O)[C@H](CC(C)C)NC(=O)[C@H](CCCCN)NC(=O)[C@H](C)NC(=O)[C@H](CC(C)C)NC(=O)[C@H](C)NC(=O)[C@H](C)NC(=O)[C@H](CC(C)C)NC(=O)[C@H](C)NC(=O)[C@H](CCCCN)NC(=O)[C@H](CCCCN)NC(=O)[C@@H](NC(=O)[C@@H](N)CC(C)C)[C@@H](C)CC)C(N)=O` [LIKKALAALAKLNI]: the minimal inhibitory concentration (MIC) in [8] was at least 173 µM.

For `CC[C@H](C)[C@H](NC(=O)[C@H](C)NC(=O)CNC(=O)[C@H](CC(C)C)NC(=O)[C@@H](NC(=O)[C@H](CCCCN)NC(=O)[C@H](CCCCN)NC(=O)[C@@H](NC(=O)[C@@H](NC(=O)CNC(=O)[C@H](CC(C)C)NC(=O)[C@H](CC(C)C)NC(=O)[C@H](CCCCN)NC(=O)[C@@H](N)CC(C)C)[C@@H](C)CC)C(C)C)C(C)C)C(N)=O` [LKLLGIVKKVLGAI], the MIC in [9] is at least 68 µM; in assay [10], at least 34 µM; in [11] it was 3 µM (≈ 4.39 µg/mL); in assay [12], at least 34 µM; in [13] it was at least 34 µM; in assay [14], 3 µM (≈ 4.39 µg/mL). Moreover, the minimal inhibitory concentration (MIC) in [15] is 17 µM (≈ 24.9 µg/mL); in assay [16], at least 34 µM; in assay [17] it was 3 µM (≈ 4.39 µg/mL).
